Measurements: patent US6673937B2, “Syntheses and methods of use of new antimitotic agents” (The University of Pittsburgh, priority 2000, dated 2004)

Experiments:
Cdk1 [1] = assay: Western blotting for Cdk1 phosphorylation status in tsFT210 cells; format: cell-based, mouse; settings: 10 or 20 μM, 6 hours
Description: (§1) tsFT210 cells were harvested using the same procedure for cell synchronizing and drug exposure as described above for the G2/M flow cytometric analysis. The protein lysates were analyzed by Western blotting for Cdk1 as described previously (Tamura K, Southwick EC, Kerns J, Rosi K, Carr BI, Wilcox C and Lazo JS (2000) Cdc25 inhibition and cell cycle arrest by a synthetic thioalkyl vitamin K analogue. Cancer Res 60:1317-1325.). The inventors used Cdk1 isolated from human MCF-7 cells to assay for in vitro inhibition of enzyme activity because of available antibodies and convenience. Asynchronous cells grown at 37° C. in 5% CO2 in DMEM containing 10% fetal bovine serum were treated with lysis buffer and harvested as previously described (Vogt A, Wang AS, Johnson CS, Fabisiak JP, Wipf P and Lazo JS (2000) In vivo antitumor activity and induction of insulin-like growth factor-1 resistant apoptosis by SC-ααδ9. J Pharmacol Exptl Therap 292:530-537.). Cdk1 kinase activity assay was performed as previously described (Yu L, Orlandi L, Wang P, Orr MS, Senderowicz AM, Sausville EA, Silvestrini R, Watanabe N, Piwnica-Worms H, O° Connor PM (1998) UCN-01 arogates G2 arrest through a Cdc2-dependent pathway that is associated with inactivation of the WeelHu kinase and activation of the Cdc25C phosphatase. J Biol Chem 273: 33455-33464.). […] Histone H1 was separated from other proteins by SDS-PAGE and analyzed for incorporation of radioactive phosphate with a Molecular Dynamics STORM 860 Phospholmager (Sunnyvale, CA).
The major controlling molecule for G2/M transition is the cyclin dependent kinase, Cdk1, whose cellular activity is tightly regulated by phosphorylation (Pines J (1999) Four-dimensional control of the cell cycle. Nature Cell Biol 1:E73-79., Hunter T and Pines J (1994) Cyclins and cancer II: cyclin D and CDK inhibitors come of age. Cell 79:573-582). […] The protein lysates were analyzed by Western blotting for Cdk1 content and phosphorylation status as described elsewhere herein. […]

recombinant Cdc25 = assay: In vitro inhibition of recombinant Cdc25; format: biochemical; settings: 30 μM, data not shown
VHR = VHR (Homo sapiens, UniProt P51452); assay: In vitro inhibition of VHR; format: biochemical; settings: 30 μM, data not shown
Cdk1 [2] = target: T1, Cdk1 (Homo sapiens, UniProt P06493); assay: Cdk1 kinase activity assay (histone H1 phosphorylation); format: biochemical; settings: immunoprecipitate from MCF-7 cells, 20 min
T1 construct: Lysates from asynchronous MCF-7 cells were immunoprecipitated with anti Cdk1 antibody coupled to agarose; endogenous in cells; host or cells: MCF-7 human breast cancer cells (immunoprecipitate)
Description: as §1, with “292:530-537.).” for “292:530-537.). Cdk1 kinase activity assay was performed as previously described (Yu L, Orlandi L, Wang P, Orr MS, Senderowicz AM, Sausville EA, Silvestrini R, Watanabe N, Piwnica-Worms H, O° Connor PM (1998) UCN-01 arogates G2 arrest through a Cdc2-dependent pathway that is associated with inactivation of the WeelHu kinase and activation of the Cdc25C phosphatase. J Biol Chem 273: 33455-33464.).”, “CA). […]” for “CA).”

bovine tubulin = assay: Tubulin hypernucleation without GTP; format: biochemical; settings: in vitro
Description: The inventors examined the ability of SR-7 to alter tubulin polymerization or depolymerization in vitro. FIG. 28, Panel A. Compounds (predissolved in DMSO) were preincubated with tubulin containing monosodium glutamate at 30 ° C. for 15 min. Samples were cooled to 0 ° C. and GTP was added. Samples were placed in a temperature-controlled multi-cuvette holder of a spectrophotometer held at 0 ° C. Baselines were established and temperature was rapidly raised to 30 ° C. Turbidity development in the cuvettes was measured at 350 nm. FIG. 28, Panel B. Compounds were added to the tubulin plus monosodium glutamate mixture at 0 ° C., placed in the spectrophotometer and temperature was raised to 30 ° C. Addition of 0.4 mM GTP to isolated bovine brain tubulin produced robust polymerization that began to plateau approximately 20 min after microtubule assembly commenced (Panel A).

bovine brain tubulin = assay: Inhibition of [3H]colchicine binding; settings: 5 μM compound; Mean ± SEM, N = 9
Description: Using methods described previously (Verdier-Pinard P, Lai J-Y, Yoo H-D, Yu J, Marquez B, Nagle DG, Nambu M, White JD, Falck JR, Gerwick WH, Day BW and Hamel E (1998) Structure-activity analysis of the interaction of curacin A, the potent colchicine site antimitotic agent, with tubulin and effects of analogs on the growth of MCF-7 breast cancer cells. Mol Phannacol 53:62-76.). 5,μM [^3H]colchicine was incubated with either 5% DMSO vehicle or compound (5 or 50 μM) at 37° C. for 15 min with 1 μM tubulin in the presence of 1 M monosodium glutamate, 0.1 M glucose-1-phosphate, 1 mM MgCl2, 1 mM GTP and 0.5 mg/ml bovine serum albumin. The solutions were filtered through two stacks of DEAE-cellulose filters and the radioactivity in the filtrate was determined by liquid scintillation spectrometry. Each series of determinations included positive controls of 5 and 50 μM curacin A. The inventors found no evidence that SR-7 could bind to the colchicine site of tubulin. […] The inventors propose that SR-7 may act at another site such as the previously characterized vinca alkaloid site.

T1 sequence (P06493 whole entry): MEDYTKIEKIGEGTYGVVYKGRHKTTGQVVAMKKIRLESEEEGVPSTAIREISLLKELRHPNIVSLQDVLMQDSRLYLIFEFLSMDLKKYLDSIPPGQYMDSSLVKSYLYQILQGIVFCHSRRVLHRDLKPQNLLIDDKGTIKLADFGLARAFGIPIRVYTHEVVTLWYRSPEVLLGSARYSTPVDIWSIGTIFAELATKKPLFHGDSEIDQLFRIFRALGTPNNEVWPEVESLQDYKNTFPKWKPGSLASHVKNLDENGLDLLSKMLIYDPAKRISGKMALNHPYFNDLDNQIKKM
T1 sequence (P14635 whole entry partner): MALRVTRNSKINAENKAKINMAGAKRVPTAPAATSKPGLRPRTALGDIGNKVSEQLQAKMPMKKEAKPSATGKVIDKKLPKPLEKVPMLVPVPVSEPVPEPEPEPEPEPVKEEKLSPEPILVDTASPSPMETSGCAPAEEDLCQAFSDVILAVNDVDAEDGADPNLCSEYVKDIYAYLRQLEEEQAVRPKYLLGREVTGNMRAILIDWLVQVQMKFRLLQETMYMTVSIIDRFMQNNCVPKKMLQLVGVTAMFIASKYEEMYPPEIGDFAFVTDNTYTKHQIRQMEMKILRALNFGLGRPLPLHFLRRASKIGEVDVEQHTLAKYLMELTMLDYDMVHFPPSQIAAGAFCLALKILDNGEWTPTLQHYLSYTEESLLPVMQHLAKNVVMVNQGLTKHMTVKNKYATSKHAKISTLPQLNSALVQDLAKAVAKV
Sequence of VHR (P51452 whole entry, species assumed): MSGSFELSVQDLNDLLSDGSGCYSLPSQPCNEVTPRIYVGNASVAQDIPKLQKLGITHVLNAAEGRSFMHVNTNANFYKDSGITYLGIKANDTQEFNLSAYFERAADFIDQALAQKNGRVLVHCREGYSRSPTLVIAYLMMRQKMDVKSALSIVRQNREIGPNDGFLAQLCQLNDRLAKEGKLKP

SMILES: O=C1C=CC2(Oc3cccc4cccc(c34)O2)c2cccc(OCc3ccco3)c21 [SR-7, 8-(furan-2-ylmethoxy)-1-oxo-1,4-dihydronaphthalene-4-spiro-2′-naphto [1″,8″-de][1′,3′] dioxin]
- Cdk1 phosphorylation status (Cdk1 [1]): Cdk1 was completely dephosphorylated
- inhibition of recombinant Cdc25 activity (recombinant Cdc25): no inhibition
- inhibition of VHR activity (VHR): no inhibition
- direct inhibition of Cdk1 kinase activity (Cdk1 [2]): not directly inhibited
- hypernucleation of tubulin (bovine tubulin): failed in vitro to hypernucleate bovine tubulin
- Percent inhibition of [3H]colchicine binding (bovine brain tubulin): 1.5 ± 0.5%
